Earlier results in US9173850B2, “4-methylpyrazole formulations” (RAPTOR PHARMACEUTICALS INC., priority 2009, dated 2015).

Tested on: ethanol intolerance
Settings: doses below 10 mg/kg; subjects with reduced or absent ALDH activity who have consumed alcohol

Cc1cn[nH]c1 [Formulation 4-MP, 4-Methylpyrazole]
Effectiveness in treating ethanol intolerance or symptoms of aldehyde accumulation: effective
